The source of these data is patent US12661410B2, “Compounds for targeted degradation of RET” (C4 Therapeutics, Inc., priority 2020, dated 2026).

Where a chain is given by its changes, count along the chain named. Where two headings read alike, the source gives them in different places.

Broadly, the Emax is the maximal effect, on the per cent scale that the assay sets. Broadly, the DC50 is the concentration giving 50% degradation.

For one test, the target named is T1, RET (658-1114) (Homo sapiens, UniProt P07949).
T1 construct: 658-1114; expressed in transfected cells; host or cells: 293T.144 (293T cells, generated in-house)
T1 sequence (P07949 658-1114): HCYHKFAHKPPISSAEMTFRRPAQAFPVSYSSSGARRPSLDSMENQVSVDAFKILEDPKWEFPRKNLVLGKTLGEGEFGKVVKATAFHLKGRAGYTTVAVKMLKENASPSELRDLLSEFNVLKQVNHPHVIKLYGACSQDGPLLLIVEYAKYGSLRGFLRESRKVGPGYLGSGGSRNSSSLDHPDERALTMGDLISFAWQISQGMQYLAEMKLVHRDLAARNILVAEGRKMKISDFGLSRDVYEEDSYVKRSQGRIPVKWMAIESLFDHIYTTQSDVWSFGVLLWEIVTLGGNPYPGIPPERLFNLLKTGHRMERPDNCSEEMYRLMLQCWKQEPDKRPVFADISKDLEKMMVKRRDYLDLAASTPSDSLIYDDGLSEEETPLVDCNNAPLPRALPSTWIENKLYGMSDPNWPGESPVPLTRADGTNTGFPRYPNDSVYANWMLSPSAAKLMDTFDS
Nature of the test: HiBiT-Degradation, RET wild-type degradation assay (Nano-Glo HiBiT Lytic), 293T.144 cells. The test is classed as cell-based. The conditions noted are these: for Emax / DC50: 6.0 hours; for Emax: read-out: 293T.144 RET (658-1114) 6.0 hours (Emax); for DC50: read-out: 293T.144 RET (658-1114) 6.0 hours (DC50). The gist of the method: (§1)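 Cells were plated and dosed with an 11-point half-log series (highest 10 μM) in duplicate. After 6 hours they were lysed with HiBiT lytic detection reagent and luminescence measured. DC50 and percent remaining protein (Emax) came from the dose-response curves.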
In general terms: The HiBiT peptide binds its large partner to form an active luciferase.

For the next test, the target named is T2, RET(KD: 658-1114 G810R) (Homo sapiens, UniProt P07949, G810R).
T2 construct: 658-1114; expressed in transfected cells; host or cells: 293T.165 (293T cells, generated in-house)
T2 sequence (P07949 658-1114 G810R): T1 sequence (P07949 658-1114) with G153R
Nature of the test: HiBiT-Degradation, RET G810R degradation assay (Nano-Glo HiBiT Lytic), 293T.165 cells. The conditions noted are these: for Emax / DC50: 6.0 hours; for Emax: % remaining protein, read-out: 293T.165 RET(KD: 658-1114 G810R) 6.0 hours (Emax); for DC50: read-out: 293T.165 RET(KD: 658-1114 G810R) 6.0 hours (DC50). The test is classed as cell-based. The gist of the method: as §1

The mark [1] stands for this setting: half-maximal degradation concentration.

In the case of `CCC1(c2ccccn2)CCN(c2ccc(-c3nc(-c4cnn(C5CCN(C(=O)CN6CCC(c7ccc(NC8CCC(=O)NC8=O)cc7F)CC6)CC5)c4)cn4ncc(C#N)c34)cn2)CC1` (centres unmarked) [Compound 110, 6-[1-[1-[2-[4-[4-[(2,6-dioxo-3-piperidyl)amino]-2-fluoro-phenyl]-1-piperidyl]acetyl]-4-piperidyl]pyrazol-4-yl]-4-[6-[4-ethyl-4-(2-pyridyl)-1-piperidyl]-3-pyridyl]pyrazolo[1,5-a]pyrazine-3-carbonitrile], at RET (658-1114), the “293T.144 RET (658-1114) 6.0 hours (IP) [nM]” value (shortened to “293T.144 RET”) was “++++ (<50 nM = ++++)”. In addition, the Emax at RET (658-1114) (% remaining protein) and at RET(KD: 658-1114 G810R) was under 30% in each case. Further, the results for the DC50 on RET (658-1114) (setting [1]) and on RET(KD: 658-1114 G810R) (setting [1]) were under 0.05 µM and under 0.1 µM, respectively. Besides, the “293T.165 RET(KD: 658-1114 G810R) 6.0 hours (IP) [nM]” value at RET(KD: 658-1114 G810R) was “+++ (<100 nM = +++)”.

For the molecule `N#Cc1cnn2cc(-c3cnn(C4CCN(C(=O)CC5(O)CCN(c6ccc(NC7CCC(=O)NC7=O)cc6F)CC5)CC4)c3)nc(-c3ccc(N4CCC(O)(Cc5ccccc5)CC4)nc3)c12` (centres unmarked) [Compound 117, 4-[6-(4-benzyl-4-hydroxy-1-piperidyl)-3-pyridyl]-6-[1-[1-[2-[1-[4-[(2,6-dioxo-3-piperidyl)amino]-2-fluoro-phenyl]-4-hydroxy-4-piperidyl]acetyl]-4-piperidyl]pyrazol-4-yl]pyrazolo[1,5-a]pyrazine-3-carbonitrile], at RET (658-1114), the “293T.144 RET” value is “++++ (<50 nM = ++++)”. Also, the Emax at RET (658-1114) (% remaining protein) and at RET(KD: 658-1114 G810R) was under 30% throughout. The DC50 on RET (658-1114) (setting [1]) and at RET(KD: 658-1114 G810R) (setting [1]) was under 0.05 µM throughout. In addition, the “293T.165 RET(KD: 658-1114 G810R) 6.0 hours (IP) [nM]” value on RET(KD: 658-1114 G810R) was “++++ (<50 nM = ++++)”.

Take `CC(C)NC(=O)C1(C)CCN(c2ccc(-c3cc(-c4ccc(N5CCN(C(=O)CC6(O)CCN(c7ccc(NC8CCC(=O)NC8=O)cc7F)CC6)CC5)cc4)cn4ncc(C#N)c34)cn2)CC1` (centres unmarked) [Compound 32, 1-(5-(3-Cyano-6-(4-(4-(2-(1-(4-((2,6-dioxopiperidin-3-yl)amino)-2-fluorophenyl)-4-hydroxypiperidin-4-yl)acetyl)piperazin-1-yl)phenyl)pyrazolo[1,5-a]pyridin-4-yl)pyridin-2-yl)-N-isopropyl-4-methylpiperidine-4-carboxamide]: on RET (658-1114) (HiBiT-Degradation), the “293T.144 RET” value was “++++ (< 50 nM = ++++)”, the DC50 was under 0.05 µM and the Emax was under 30%. Also, the Emax at RET(KD: 658-1114 G810R) was under 50%. At RET(KD: 658-1114 G810R) (setting [1]), the DC50 is under 0.05 µM. In addition, on RET(KD: 658-1114 G810R) (HiBiT-Degradation), the “293T.165 RET(KD: 658-1114 G810R) 6.0 hours (Emax)” value was “+++ (<50% = +++)”, the “293T.165 RET(KD: 658-1114 G810R) 6.0 hours (IP) [nM]” value is listed as “++++ (< 50 nM = ++++)” and the DC50 is under 0.05 µM.

Turning to `CCC1(C(=O)NC2CCC2)CCN(c2ccc(-c3nc(-c4cnn([C@H]5CC[C@H](N6CCN(c7c(F)cc(N[C@H]8CCC(=O)NC8=O)cc7F)CC6)CC5)c4)cn4ncc(C#N)c34)cn2)CC1` (single isomer, unassigned) [Compound 136], the “293T.144 RET” value on RET (658-1114) is listed as “++++ (<50 nM = ++++)”. Moreover, the Emax at RET (658-1114) (% remaining protein) and on RET(KD: 658-1114 G810R) was under 30% each time. Besides, the DC50 at RET (658-1114) (setting [1]) and on RET(KD: 658-1114 G810R) (setting [1]) was under 0.05 µM each time. The “293T.165 RET(KD: 658-1114 G810R) 6.0 hours (IP) [nM]” value at RET(KD: 658-1114 G810R) was “++++ (<50 nM = ++++)”.

On to `CC(C)(C)CC(=O)N1[C@@H]2COC[C@H]1CN(c1ccc(-c3nc(-c4cnn([C@H]5CC[C@@H](N6CCN(c7ccc(NC8CCC(=O)NC8=O)cc7F)CC6)CC5)c4)cn4ncc(C#N)c34)cn1)C2` (single isomer, unassigned) [Compound 158], for which the “293T.144 RET” value on RET (658-1114) is “++++ (<50 nM = ++++)”. In addition, the Emax at RET (658-1114) (% remaining protein) and at RET(KD: 658-1114 G810R) was under 30% in each case. Further, the DC50 on RET (658-1114) (setting [1]) and at RET(KD: 658-1114 G810R) (setting [1]) was under 0.05 µM throughout. In addition, at RET(KD: 658-1114 G810R), the “293T.165 RET(KD: 658-1114 G810R) 6.0 hours (IP) [nM]” value is given as “++++ (<50 nM = ++++)”.

For the molecule `CC(C)(C)OC(=O)N1[C@@H]2COC[C@H]1CN(c1ccc(-c3nc(-c4cnn([C@H]5CC[C@@H](N6CCN(c7ccc(NC8CCC(=O)NC8=O)cc7F)CC6)CC5)c4)cn4ncc(C#N)c34)cn1)C2` (single isomer, unassigned) [Compound 159], the “293T.144 RET” value at RET (658-1114) was “++++ (<50 nM = ++++)”. Besides, the Emax at RET (658-1114) (% remaining protein) and on RET(KD: 658-1114 G810R) was under 30% each time. Moreover, the DC50 on RET (658-1114) (setting [1]) and on RET(KD: 658-1114 G810R) (setting [1]) was under 0.05 µM throughout. Moreover, at RET(KD: 658-1114 G810R), the “293T.165 RET(KD: 658-1114 G810R) 6.0 hours (IP) [nM]” value was “++++ (<50 nM = ++++)”.

In the case of `CCC1(C(=O)NC(C)(C)C)CCN(c2ccc(-c3nc(-c4cnn(C5CCN(C(=O)CC6(O)CCN(c7ccc(NC8CCC(=O)NC8=O)cc7Cl)CC6)CC5)c4)cn4ncc(C#N)c34)cn2)CC1` (centres unmarked) [Compound 102, N-tert-butyl-1-[5-[6-[1-[1-[2-[1-[2-chloro-4-[(2,6-dioxo-3-piperidyl)amino]phenyl]-4-hydroxy-4-piperidyl]acetyl]-4-piperidyl]pyrazol-4-yl]-3-cyano-pyrazolo[1,5-a]pyrazin-4-yl]-2-pyridyl]-4-ethyl-piperidine-4-carboxamide], the “293T.144 RET” value at RET (658-1114) is on record as “++++ (<50 nM = ++++)”. The Emax at RET (658-1114) (% remaining protein) and on RET(KD: 658-1114 G810R) was under 30% throughout. The DC50 on RET (658-1114) (setting [1]) and on RET(KD: 658-1114 G810R) (setting [1]) was under 0.05 µM throughout. On RET(KD: 658-1114 G810R), the “293T.165 RET(KD: 658-1114 G810R) 6.0 hours (IP) [nM]” value is “++++ (<50 nM = ++++)”.

For `N#Cc1cnn2cc(-c3cnn([C@H]4CC[C@H](N5CCC(c6ccc(NC7CCC(=O)NC7=O)cc6F)CC5)CC4)c3)nc(-c3ccc(N4CC5COCC(C4)N5Cc4ccccn4)nc3)c12` (single isomer, unassigned) [Compound 154, 6-[1-[4-[4-[4-[(2,6-dioxo-3-piperidyl)amino]-2-fluoro-phenyl]-1-piperidyl]cyclohexyl]pyrazol-4-yl]-4-[6-[9-(2-pyridylmethyl)-3-oxa-7,9-diazabicyclo[3.3.1]nonan-7-yl]-3-pyridyl]pyrazolo[1,5-a]pyrazine-3-carbonitrile], on RET (658-1114), the “293T.144 RET” value is “++++ (<50 nM = ++++)”. In addition, the Emax at RET (658-1114) (% remaining protein) and on RET(KD: 658-1114 G810R) was under 30% in each case. Further, the DC50 at RET (658-1114) (setting [1]) and on RET(KD: 658-1114 G810R) (setting [1]) was under 0.05 µM each time. Moreover, the “293T.165 RET(KD: 658-1114 G810R) 6.0 hours (IP) [nM]” value on RET(KD: 658-1114 G810R) is “++++ (<50 nM = ++++)”.

For the molecule `CCC1(C(=O)NC(C)C)CCN(c2ncc(-c3nc(-c4cnn(C5CCN(C(=O)CC6(O)CCN(c7ccc(NC8CCC(=O)NC8=O)cc7F)CC6)CC5)c4)cn4ncc(C#N)c34)cc2F)CC1` (centres unmarked) [Compound 119, 1-(5-(3-cyano-6-(1-(1-(2-(1-(4-((2,6-dioxopiperidin-3-yl)amino)-2-fluorophenyl)-4-hydroxypiperidin-4-yl)acetyl)piperidin-4-yl)-1H-pyrazol-4-yl)pyrazolo[1,5-a]pyrazin-4-yl)-3-fluoropyridin-2-yl)-4-ethyl-N-isopropylpiperidine-4-carboxamide], the “293T.144 RET” value on RET (658-1114) is recorded as “++++ (<50 nM = ++++)”. Moreover, the Emax is under 30% at RET (658-1114) (% remaining protein) and under 50% on RET(KD: 658-1114 G810R). In addition, the DC50 on RET (658-1114) (setting [1]) is under 0.05 µM; on RET(KD: 658-1114 G810R) (setting [1]), under 0.1 µM. For the same molecule, on RET(KD: 658-1114 G810R), the “293T.165 RET(KD: 658-1114 G810R) 6.0 hours (IP) [nM]” value is on record as “++++ (<50 nM = ++++)”.

On to `CCC1(c2ncccn2)CCN(c2ccc(-c3nc(-c4cnn(C5CCN(C(=O)CC6(O)CCN(c7ccc(NC8CCC(=O)NC8=O)cc7F)CC6)CC5)c4)cn4ncc(C#N)c34)cn2)CC1` (centres unmarked) [Compound 105, 6-[1-[1-[2-[1-[4-[(2,6-dioxo-3-piperidyl)amino]-2-fluoro-phenyl]-4-hydroxy-4-piperidyl]acetyl]-4-piperidyl]pyrazol-4-yl]-4-[6-(4-ethyl-4-pyrimidin-2-yl-1-piperidyl)-3-pyridyl]pyrazolo[1,5-a]pyrazine-3-carbonitrile], for which, on RET (658-1114), the “293T.144 RET” value is listed as “++++ (<50 nM = ++++)”. Moreover, the Emax was under 30% on RET (658-1114) (% remaining protein) and under 50% on RET(KD: 658-1114 G810R). Besides, the DC50 at RET (658-1114) (setting [1]) and on RET(KD: 658-1114 G810R) (setting [1]) was under 0.05 µM throughout. Besides, at RET(KD: 658-1114 G810R), the “293T.165 RET(KD: 658-1114 G810R) 6.0 hours (IP) [nM]” value was “++++ (<50 nM = ++++)”.
